Assay results reported in patent publication US11932636B2, “RAD51 inhibitors” (Cyteir Therapeutics, Inc., priority 2019, dated 2024).
Where two headings read alike, the source gives them in different places.

Tested on: Daudi cells (AID positive)
Assay: Compound primary screening: cell death in AID positive Daudi cells (Cell-Titer Glo, Day 7)
Assay type: cell-based
Conditions: Homo sapiens, 168 h, read-out: Cellular activity in AID + (Daudi)
Method in brief: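 AID-positive Daudi cells were seeded at 1250 cells per well and treated with serially diluted compound delivered from a DMSO/media master plate. Cultures were incubated at 37 °C, and cell death was measured on Day 7 with Cell-Titer Glo luminescence.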

[1] = Daudi cells, AID positive, cell death on Day 7, Cell-Titer Glo

SMILES	EC50 [1]	EC50 (Daudi)
CCNS(=O)(=O)c1cc(N2CC(OC(C)C)C2)ccc1-c1cnc([C@H]2CC[C@H](NC(=O)OC(C)C)CC2)s1 [Compound 114, isopropyl trans-N-[4-[5-[2-(ethylsulfamoyl)-4-[3-isopropoxyazetidin-1-yl]phenyl]thiazol-2-yl]cyclohexyl]carbamate]	100 to 1000 nM	
CCNS(=O)(=O)c1cc(Nc2nnc(C(C)C)s2)ccc1-c1cnc(C2CCC(NC(=O)OC(C)C)CC2)s1 (stereo not drawn) [Compound 115, isopropyl trans-N-[4-[5-[2-(ethylsulfamoyl)-4-[(5-isopropyl-1,3,4-thiadiazol-2-y)amino]phenyl]thiazol-2-yl]cyclohexyl]carbamate]	< 100 nM	
CCNS(=O)(=O)c1cc(NC2(C)COC2)ccc1-c1cnc([C@H]2CC[C@H](NC(=O)OC(C)C)CC2)s1 [Compound 116, isopropyl trans-N-[4-[5-[2-(ethylsulfamoyl)-4-[(3-methyloxetan-3-yl)amino]phenyl]thiazol-2-yl]cyclohexyl]carbamate]	< 100 nM	
CCNS(=O)(=O)c1cc(N(C)c2nccn2C)ccc1-c1cnc([C@H]2CC[C@H](NC(=O)OC(C)C)CC2)s1 [Compound 117, isopropyl trans-N-[4-[5-[2-(ethylsulfamoyl)-4-[methyl(1-methyl-1H-imidazol-2-yl)amino]phenyl]thiazol-2-yl]cyclohexyl]carbamate]	100 to 1000 nM	
CCNS(=O)(=O)c1cc(Nc2nnco2)ccc1-c1cnc([C@H]2CC[C@H](NC(=O)OC(C)C)CC2)s1 [Compound 118, isopropyl trans-N-[4-[5-[2-(ethylsulfamoyl)-4-[(1,3,4-oxadiazol-2-yl)amino]phenyl]thiazol-2-yl]cyclohexyl]carbamate]	100 to 1000 nM	
CCNS(=O)(=O)c1cc(Nc2nncs2)ccc1-c1cnc([C@H]2CC[C@H](NC(=O)OC(C)C)CC2)s1 [Compound 119, isopropyl trans-N-[4-[5-[2-(ethylsulfamoyl)-4-[(1,3,4-thiadiazol-2-yl)amino]phenyl]thiazol-2-yl]cyclohexyl]carbamate]	< 100 nM	
CCNS(=O)(=O)c1cc(Nc2cn[nH]c2)ccc1-c1cnc([C@H]2CC[C@H](NC(=O)OC(C)C)CC2)s1 [Compound 120, isopropyl trans-N-[4-[5-[2-(ethylsulfamoyl)-4-[(1H-pyrazol-4-yl)amino]phenyl]thiazol-2-yl]cyclohexyl]carbamate]	< 100 nM	
CCNS(=O)(=O)c1cc(Nc2ccn[nH]2)ccc1-c1cnc([C@H]2CC[C@H](NC(=O)OC(C)C)CC2)s1 [Compound 121, isopropyl trans-N-[4-[5-[2-(ethylsulfamoyl)-4-[(1H-pyrazol-5-yl)amino]phenyl]thiazol-2-yl]cyclohexyl]carbamate]	< 100 nM	
CCNS(=O)(=O)c1cc(Nc2cnccn2)ccc1-c1cnc([C@H]2CC[C@H](NC(=O)OC(C)C)CC2)s1 [Compound 122, isopropyl trans-N-[4-[5-[2-(ethylsulfamoyl)-4-[(pyrazin-2-yl)amino]phenyl]thiazol-2-yl]cyclohexyl]carbamate]	< 100 nM	
CCNS(=O)(=O)c1cc(Nc2cccnn2)ccc1-c1cnc([C@H]2CC[C@H](NC(=O)OC(C)C)CC2)s1 [Compound 123, isopropyl trans-N-[4-[5-[2-(ethylsulfamoyl)-4-[(pyridazin-3-yl)amino]phenyl]thiazol-2-yl]cyclohexyl]carbamate]	< 100 nM	
CCNS(=O)(=O)c1cc(Nc2ccncn2)ccc1-c1cnc([C@H]2CC[C@H](NC(=O)OC(C)C)CC2)s1 [Compound 124, isopropyl trans-N-[4-[5-[2-(ethylsulfamoyl)-4-[(pyrimidin-4-yl)amino]phenyl]thiazol-2-yl]cyclohexyl]carbamate]	< 100 nM	
CCNS(=O)(=O)c1cc(Nc2ccncc2)ccc1-c1cnc([C@H]2CC[C@H](NC(=O)OC(C)C)CC2)s1 [Compound 125, isopropyl trans-N-[4-[5-[2-(ethylsulfamoyl)-4-[(pyridin-4-yl)amino]phenyl]thiazol-2-yl]cyclohexyl]carbamate]	< 100 nM	
CCNS(=O)(=O)c1cc(Nc2ccccn2)ccc1-c1cnc([C@H]2CC[C@H](NC(=O)OC(C)C)CC2)s1 [Compound 126, isopropyl trans-N-[4-[5-[2-(ethylsulfamoyl)-4-[(pyridin-2-yl)amino]phenyl]thiazol-2-yl]cyclohexyl]carbamate]	< 100 nM	
CCNS(=O)(=O)c1cc(Nc2ncccn2)ccc1-c1cnc([C@H]2CC[C@H](NC(=O)OC(C)C)CC2)s1 [Compound 127, isopropyl trans-N-[4-[5-[2-(ethylsulfamoyl)-4-[(pyrimidin-2-yl)amino]phenyl]thiazol-2-yl]cyclohexyl]carbamate]	100 to 1000 nM	
CCNS(=O)(=O)c1cc(Nc2cccnc2)ccc1-c1cnc([C@H]2CC[C@H](NC(=O)OC(C)C)CC2)s1 [Compound 128, isopropyl trans-N-[4-[5-[2-(ethylsulfamoyl)-4-[(pyridin-3-yl)amino]phenyl]thiazol-2-yl]cyclohexyl]carbamate]	< 100 nM	
CCNS(=O)(=O)c1cc(Nc2ccnn2C(C)C)ccc1-c1cnc([C@H]2CC[C@H](NC(=O)OC(C)C)CC2)s1 [Compound 129, isopropyl trans-N-[4-[5-[2-(ethylsulfamoyl)-4-[(1-isopropyl-1H-pyrazol-5-yl)amino]phenyl]thiazol-2-yl]cyclohexyl]carbamate]	< 100 nM	
CCNS(=O)(=O)c1cc(N2CCC(O)CC2)ccc1-c1cnc([C@H]2CC[C@H](NC(=O)OC(C)C)CC2)s1 [Compound 130, isopropyl trans-N-[4-[5-[2-(ethylsulfamoyl)-4-[4-hydroxypiperidin-1-yl]phenyl]thiazol-2-yl]cyclohexyl]carbamate]	100 to 1000 nM	
CCNS(=O)(=O)c1cc(N(C)CCO)ccc1-c1cnc(C2CCC(NC(=O)OC(C)C)CC2)s1 (stereo not drawn) [Compound 131, isopropyl trans-N-[4-[5-[2-(ethylsulfamoyl)-4-[(2-hydroxyethyl) (methyl))amino]phenyl]thiazol-2-yl]cyclohexyl]carbamate]	< 100 nM	
CCNS(=O)(=O)c1cc(N(C)CCOC)ccc1-c1cnc(C2CCC(NC(=O)OC(C)C)CC2)s1 (stereo not drawn) [Compound 132, isopropyl trans-N-[4-[5-[2-(ethylsulfamoyl)-4-[(2-methoxyethyl) (methyl))amino]phenyl]thiazol-2-yl]cyclohexyl]carbamate]	100 to 1000 nM	
CCNS(=O)(=O)c1cc(N2CCS(=O)(=O)CC2)ccc1-c1cnc([C@H]2CC[C@H](NC(=O)OC(C)C)CC2)s1 [Compound 133, isopropyl trans-N-[4-[5-[2-(ethylsulfamoyl)-4-[1,1-dioxidothiomorpholino]phenyl]thiazol-2-yl]cyclohexyl]carbamate]	1000 to 10000 nM	
CCNS(=O)(=O)c1cc(N2CCOCC2)ccc1-c1cnc([C@H]2CC[C@H](NC(=O)OC(C)C)CC2)s1 [Compound 134, isopropyl trans-N-[4-[5-[2-(ethylsulfamoyl)-4-[morpholino]phenyl]thiazol-2-yl]cyclohexyl]carbamate]	100 to 1000 nM	
CCNS(=O)(=O)c1cc(N2CCCCC2)ccc1-c1cnc([C@H]2CC[C@H](NC(=O)OC(C)C)CC2)s1 [Compound 135, isopropyl trans-N-[4-[5-[2-(ethylsulfamoyl)-4-[piperidin-1-yl]phenyl]thiazol-2-yl]cyclohexyl]carbamate]	100 to 1000 nM	
CCNS(=O)(=O)c1cc(Nc2ccnc(C(C)C)n2)ccc1-c1cnc([C@H]2CC[C@H](NC(=O)OC(C)C)CC2)s1 [Compound 136, isopropyl trans-N-[4-[5-[2-(ethylsulfamoyl)-4-[(2-isopropylpyrimidin-4-yl)amino]phenyl]thiazol-2-yl]cyclohexyl]carbamate]	< 100 nM	
CCNS(=O)(=O)c1cc(NC2COC2)ccc1-c1cnc([C@H]2CC[C@H](NC(=O)OC(C)C)CC2)s1 [Compound 137, isopropyl trans-N-[4-[5-[2-(ethylsulfamoyl)-4-[(oxetan-3-yl)amino]phenyl]thiazol-2-yl]cyclohexyl]carbamate]	< 100 nM	
CCNS(=O)(=O)c1cc(Nc2cncn2C(C)C)ccc1-c1cnc([C@H]2CC[C@H](NC(=O)OC(C)C)CC2)s1 [Compound 138, isopropyl trans-N-[4-[5-[2-(ethylsulfamoyl)-4-[(3-isopropylimidazol-4-yl)amino]phenyl]thiazol-2-yl]cyclohexyl]carbamate]	100 to 1000 nM	
CCNS(=O)(=O)c1cc(Nc2cn(C(C)C)cn2)ccc1-c1cnc([C@H]2CC[C@H](NC(=O)OC(C)C)CC2)s1 [Compound 139, isopropyl trans-N-[4-[5-[2-(ethylsulfamoyl)-4-[(1-isopropyl-1H-imidazol-4-yl)amino]phenyl]thiazol-2-yl]cyclohexyl]carbamate]	< 100 nM	
CCNS(=O)(=O)c1cc(Nc2cncc(C(C)C)n2)ccc1-c1cnc([C@H]2CC[C@H](NC(=O)OC(C)C)CC2)s1 [Compound 140, isopropyl trans-N-[4-[5-[2-(ethylsulfamoyl)-4-[(6-isopropylpyrazin-2-yl)amino]phenyl]thiazol-2-yl]cyclohexyl]carbamate]	100 to 1000 nM	
CCNS(=O)(=O)c1cc(Nc2ncc(C)[nH]2)ccc1-c1cnc([C@H]2CC[C@H](NC(=O)OC(C)C)CC2)s1 [Compound 141, isopropyl trans-N-[4-[5-[2-(ethylsulfamoyl)-4-[(5-methyl-1H-imidazol-2-yl)amino]phenyl]thiazol-2-yl]cyclohexyl]carbamate]		1000 to 10000 nM
CCNS(=O)(=O)c1cc(Nc2ncc(C(C)C)[nH]2)ccc1-c1cnc([C@H]2CC[C@H](NC(=O)OC(C)C)CC2)s1 [Compound 142, isopropyl trans-N-[4-[5-[2-(ethylsulfamoyl)-4-[(5-isopropyl-1H-imidazol-2-yl)amino]phenyl]thiazol-2-yl]cyclohexyl]carbamate]	1000 to 10000 nM	
CCNS(=O)(=O)c1cc(Nc2ccc(C(C)C)nn2)ccc1-c1cnc([C@H]2CC[C@H](NC(=O)OC(C)C)CC2)s1 [Compound 143, isopropyl trans-N-[4-[5-[2-(ethylsulfamoyl)-4-[(6-isopropylpyridazin-3-yl)amino]phenyl]thiazol-2-yl]cyclohexyl]carbamate]	< 100 nM	
